Measurements reported in patent publication US20250313604A1, “PEPTIDE PHARMACEUTICALS FOR INSULIN RESISTANCE” (Mederis Diabetes LLC, priority 2014, published 2025).
Non-standard residues stand in square brackets, D forms with d. Residues, ends and D or L forms follow the SMILES beside them. *: point of attachment. GlcA(β-D,1-O-dodecyl) = CCCCCCCCCCCCO[C@@H]1O[C@H](C(=O)*)[C@@H](O)[C@H](O)[C@H]1O; αMeF = C[C@](N)(Cc1ccccc1)C(=O)O; Aib = CC(C)(N)C(=O)O

Tests used:
glucagon R = target: T1, glucagon R (Homo sapiens, UniProt P47871); experiment: Cerep cellular assay, stimulation of cAMP levels, glucagon (human, cloned into CHO cells); type: cell-based
T1 construct: host or cells: CHO cells
Description: Compounds were weighed precisely in an amount of approximately 1 mg and assayed in standard cellular assays (Cerep SA). The readout is the amount of cAMP generated in the cells treated with the test compounds, in either agonist or antagonist mode. […] The assays are described in Chicchi, G. G., et al. (1997) J Biol Chem 272:7765-7769 and Runge, S., et al. (2003) Br J Pharmacol 138:787-794.

[1] = Plasma protease stability; type: in vitro ADME; details: incubation at 30 degC, t=0-8 hrs, LC-MS (FIG. 8)
Description: Standard and QC Sample Preparation: i. […] Make standard working solutions in 50% CH3CN with the stock solution. […] Spiked 10 μL of the working solutions into 90 μL blank plasma and vortex them, iv. […] Transfer the supernatant into an HPLC injection plate for loading on the HPLC column, vi.

db/db mice = experiment: In vivo assay in db/db mice (blood glucose, body weight, food consumption)

T1 sequence (P47871 26-477): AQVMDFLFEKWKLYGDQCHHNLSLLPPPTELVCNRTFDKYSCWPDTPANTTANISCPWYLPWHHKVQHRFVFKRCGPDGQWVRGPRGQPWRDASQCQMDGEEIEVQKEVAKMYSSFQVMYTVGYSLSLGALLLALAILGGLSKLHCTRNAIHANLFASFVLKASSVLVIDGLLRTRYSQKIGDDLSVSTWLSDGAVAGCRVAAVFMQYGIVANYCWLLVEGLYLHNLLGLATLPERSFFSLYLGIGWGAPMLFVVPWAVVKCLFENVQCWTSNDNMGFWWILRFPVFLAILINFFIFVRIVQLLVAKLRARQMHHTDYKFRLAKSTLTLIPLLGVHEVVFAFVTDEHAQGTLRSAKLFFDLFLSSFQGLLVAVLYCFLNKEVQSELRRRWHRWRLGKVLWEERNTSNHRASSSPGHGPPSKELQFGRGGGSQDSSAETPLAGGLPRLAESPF

Compound | GLCR cellular response (glucagon R) | amount of intact compound in the human plasma versus time [1] | db/db mice - Mean Blood Glucose (db/db mice; 250 nmole/kg s.c., 0 hr) [mg/dL] | db/db mice - Mean Blood Glucose (db/db mice; 250 nmole/kg s.c., 10 hr) [mg/dL] | db/db mice - Mean Blood Glucose (db/db mice; 250 nmole/kg s.c., 24 hr) [mg/dL] | db/db mice - Mean Blood Glucose (db/db mice; 250 nmole/kg s.c., 48 hr) [mg/dL] | db/db mice - Mean Blood Glucose (db/db mice; 50 nmole/kg s.c., 0 hr) [mg/dL] | db/db mice - Mean Blood Glucose (db/db mice; 50 nmole/kg s.c., 10 hr) [mg/dL] | db/db mice - Mean Blood Glucose (db/db mice; 50 nmole/kg s.c., 24 hr) [mg/dL] | db/db mice - Mean Blood Glucose (db/db mice; 50 nmole/kg s.c., 48 hr) [mg/dL]
CCCCCCCCCCCCO[C@@H]1O[C@H](C(=O)NCCCC[C@H](NC(=O)C(C)(C)NC(=O)[C@H](CC(=O)O)NC(=O)[C@H](CC(C)C)NC(=O)[C@H](Cc2ccc(O)cc2)NC(=O)[C@H](CCCCN)NC(=O)[C@H](CO)NC(=O)[C@H](Cc2ccc(O)cc2)NC(=O)[C@H](CC(=O)O)NC(=O)[C@H](CO)NC(=O)[C@@H](NC(=O)[C@](C)(Cc2ccccc2)NC(=O)[C@@H](NC(=O)CNC(=O)[C@H](CCC(N)=O)NC(=O)C(C)(C)NC(=O)[C@@H](N)Cc2c[nH]cn2)[C@@H](C)O)[C@@H](C)O)C(N)=O)[C@@H](O)[C@H](O)[C@H]1O [EU-A391] (H-H[Aib]QGT[αMeF]TSDYSKYLD[Aib]K(GlcA(β-D,1-O-dodecyl))-NH2; N-terminus assumed) | does not change |  |  |  |  |  |  |  |  | 
CCCCCCCCCCCCO[C@@H]1O[C@H](C(=O)NCCCC[C@H](NC(=O)[C@@H](NC(=O)[C@H](Cc2ccccc2)NC(=O)[C@H](CCC(=O)O)NC(=O)[C@@H]2CCCCNC(=O)CC[C@H](NC(=O)[C@H](CC(=O)O)NC(=O)[C@H](CC(C)C)NC(=O)[C@H](Cc3ccc(O)cc3)NC(=O)[C@H](CCCCN)NC(=O)[C@H](CO)NC(=O)[C@H](Cc3ccc(O)cc3)NC(=O)[C@H](CC(=O)O)NC(=O)[C@H](CO)NC(=O)[C@@H](NC(=O)[C@H](Cc3ccccc3)NC(=O)[C@@H](NC(=O)CNC(=O)[C@H](CCC(N)=O)NC(=O)C(C)(C)NC(=O)[C@@H](N)Cc3c[nH]cn3)[C@@H](C)O)[C@@H](C)O)C(=O)N[C@@H](CCC(N)=O)C(=O)N[C@@H](C)C(=O)N[C@@H](C)C(=O)N2)[C@@H](C)CC)C(=O)N[C@@H](Cc2c[nH]c3ccccc23)C(=O)N[C@@H](CC(C)C)C(=O)N[C@@H](CC(C)C)C(=O)N[C@@H](CCC(N)=O)C(=O)N[C@H](C(N)=O)[C@@H](C)O)[C@@H](O)[C@H](O)[C@H]1O [EU-A993, His1-Aib2-Gln3-Gly4-Thr5-Phe6-Thr7-Ser8-Asp9-Tyr10-Ser11-Lys12-Tyr13-Leu14-Asp15-Glu*16-Gln17-Ala18-Ala19-Lys*20-Glu21-Phe22-Ile23-Lys(N-omega(1-dodecylbeta-D-glucuronyl))24-Trp25-Leu26-Leu27-Gln28-Thr29-NH2] |  | essentially no change over 8 hrs | 503 | 305 | 324 | 426 |  |  |  | 
CCCCCCCCCCCCO[C@@H]1O[C@H](CO[C@H]2O[C@H](C(=O)NCCCC[C@H](NC(=O)[C@@H](NC(=O)[C@H](Cc3ccccc3)NC(=O)[C@H](CCC(=O)O)NC(=O)[C@@H]3CCCCNC(=O)CC[C@H](NC(=O)[C@H](CC(=O)O)NC(=O)[C@H](CC(C)C)NC(=O)[C@H](Cc4ccc(O)cc4)NC(=O)[C@H](CCCCN)NC(=O)[C@H](CO)NC(=O)[C@H](Cc4ccc(O)cc4)NC(=O)[C@H](CC(=O)O)NC(=O)[C@H](CO)NC(=O)[C@@H](NC(=O)[C@H](Cc4ccccc4)NC(=O)[C@@H](NC(=O)CNC(=O)[C@H](CCC(N)=O)NC(=O)C(C)(C)NC(=O)[C@@H](N)Cc4c[nH]cn4)[C@@H](C)O)[C@@H](C)O)C(=O)N[C@@H](CCC(N)=O)C(=O)N[C@@H](C)C(=O)N[C@@H](C)C(=O)N3)[C@@H](C)CC)C(=O)N[C@@H](Cc3c[nH]c4ccccc34)C(=O)N[C@@H](CC(C)C)C(=O)N[C@@H](CC(C)C)C(=O)N[C@@H](CCC(N)=O)C(=O)N[C@H](C(N)=O)[C@@H](C)O)[C@H](O)[C@H](O)[C@H]2O)[C@@H](O)[C@H](O)[C@H]1O [EU-A1023, His1-Aib2-Gln3-Gly4-Thr5-Phe6-Thr7-Ser8-Asp9-Tyr10-Ser11-Lys12-Tyr13-Leu14-Asp15-Glu*16-Gln17 Ala18-Ala19-Lys*20-Glu21-Phe22-Ile23-Lys (N-omega (1-dodecyl beta-D-melibiouronyl)) 24-Trp25-Leu26-Leu27-Gln28-Thr29-NH2] |  | essentially no change over 8 hrs | 508 | 264 | 194 | 375 | 507 | 310 | 355 | 375
